# Laboratory results published in PMC5517430, “2,3,7,8-Tetrachlorodibenzo-p-dioxin (TCDD)-elicited effects on bile acid homeostasis: Alterations in biosynthesis, enterohepatic circulation, and microbial metabolism” (Scientific Reports, 2017).
# Key:
# [1] = test system: intestine of male C57BL/6 mice; assay: Sugar probe intestinal para-cellular permeability (UPLC-MS/MS of urine); assay type: in vivo, mouse; settings: 30 µg/kg TCDD every 4 d, 26 d after initial dose
# Description: At 26d after the initial dose (PND54), mice were fasted for 4 h (without access to food or water) prior to oral gavage with 150 µL of a solution containing 100 mg sucrose, 12 mg lactulose, 8 mg mannitol, and 6 mg sucralose. Urine from each mouse was collected over a 5 h period, flash frozen, and combined prior to analysis. Urine was diluted in 95% acetonitrile/5% water: 100-fold for mannitol detection, 200-fold for sucrose and lactulose detection, and 500-fold for sucralose detection. Sugar probe recovery was measured using ultra high performance liquid chromatography-tandem mass spectrometry (UPLC-MS/MS), performed at the MSU RTSF Mass Spectrometry and Metabolomics Core (https://rtsf.natsci.msu.edu/mass-spectrometry/). Diluted urine samples were injected onto an Acquity UPLC BEH Amide column (1.7 µm, 2.1 × 100 mm) (Waters, Milford, MA) maintained at 50 °C on a Waters ACQUITY UPLC systems (Waters). Mobile phase A was 50 mM ammonium acetate buffer (pH = 9.6) and mobile phase B was acetonitrile. […]
# Data analysis including peak integration was performed using MAVEN[75]. […] Fractional excretion of each probe was calculated using: (probe concentration from MS X total urine volume excreted)/probe input. […]
# [2] = test system: bsh and baiCD of gut microbiota; assay: Degenerate qRT-PCR of bacterial functional genes in fecal pellets; assay type: in vivo, mouse; settings: male mice, 30 µg/kg TCDD
# From the text: The bsh Hidden Markov Model (HMM) constructed by the Ribosomal Database Project consisted of 12 vetted seed sequences from Lactobacillus, Clostridium, Roseburia, Eubacterium, Butyrivibrio, and Streptococcus species, while the baiCD HMM consisted of 10 vetted seed sequences from Clostridium and Lachnospiraceae species. Using these models, more inclusive sequence sets were created for bsh and baiCD within the ‘FunGene functional gene pipeline & repository’[80] by extracting sequences from GenBank. Setting the HMM consensus percent identity cut-off to ≥40%, nucleotide sequences of bsh and baiCD were obtained from 2633 and 129 bacterial organisms, respectively. Given the diversity of bacterial organisms found to express bsh, the 2633 sequences from FunGene were separated into 4 groups based on nucleotide similarity determined through construction of a phylogenetic tree (Group 1: 423, Group 2: 330, Group 3: 955, Group 4: 925). Bacterial classifications (genus level) of the bsh sequences in each phylogenetic group are depicted in Fig. 8A1. […] The Primer Design terminal program developed by the Ribosomal Database Project (https://github.com/rdpstaff/PrimerDesign) was used to design degenerate primer sets which target conserved regions within baiCD and each phylogenetic group of bsh (Supplementary Table S2). To estimate the overall abundance of bile acid metabolism genes within the gut microbiome, primer sets were selected to target ≥75% of the baiCD sequences and the sequences within each bsh group.
# Frozen fecal pellets were crushed into a powder and bacterial DNA was isolated using the QIAamp DNA Stool Mini Kit (Qiagen, Valencia, CA). To investigate bile acid metabolism loci, qRT-PCR was performed on a Bio-Rad CFX Connect Real-Time PCR Detection System as previously described. Gene expression relative to vehicle control was calculated using the 2^−∆∆CT method, with each fecal sample extract normalized to total bacterial DNA levels using universal primers targeting the 16 S ribosomal RNA gene[81]. Gene levels are plotted relative to vehicle control.
# [3] = normalized to 16S rRNA gene, n = 2
compound,measurement,setting,value
"Clc1cc2c(cc1Cl)Oc1cc(Cl)c(Cl)cc1O2 [TCDD, 2,3,7,8-tetrachlorodibenzo-p-dioxin]",Permeability of the small intestine (lactulose-to-mannitol ratio),[1],unaffected
same,bsh gene levels within phylogenetic group 4,[2],unaffected
same,"bsh gene levels within phylogenetic groups 1, 2, and 3",[2],increased
same,"Clostridium baiCD level (validated primers), fold increase",[2]; [3],2.1 fold
same,"bsh gene level, group 1 primer set 7, fold increase",[2]; [3],21.8 fold
same,"bsh gene level, group 1 primer set 8, fold increase",[2]; [3],7.3 fold
same,"bsh gene level, group 2 primer set 2, fold increase",[2]; [3],7.6 fold
same,"bsh gene level, group 2 primer set 11, fold increase",[2]; [3],7.5 fold
same,"bsh gene level, group 3 primer set 9, fold increase",[2]; [3],4.2 fold
